Measurements from patent US20250064941A1, “SIGLEC LIGANDS, CONJUGATES, AND METHODS OF USE THEREOF” (Osprey Biopharmaceuticals, Inc., priority 2023, published 2025).

Columns and labels:
[1] = target: T1, mouse Siglec-2-Fc-Avi (CD22) (Mus musculus, UniProt P35329); assay: SPR binding affinity to mouse CD22; settings: steady-state analysis
T1 construct: made in house
T1 sequence (P35329 22-708 limits assumed): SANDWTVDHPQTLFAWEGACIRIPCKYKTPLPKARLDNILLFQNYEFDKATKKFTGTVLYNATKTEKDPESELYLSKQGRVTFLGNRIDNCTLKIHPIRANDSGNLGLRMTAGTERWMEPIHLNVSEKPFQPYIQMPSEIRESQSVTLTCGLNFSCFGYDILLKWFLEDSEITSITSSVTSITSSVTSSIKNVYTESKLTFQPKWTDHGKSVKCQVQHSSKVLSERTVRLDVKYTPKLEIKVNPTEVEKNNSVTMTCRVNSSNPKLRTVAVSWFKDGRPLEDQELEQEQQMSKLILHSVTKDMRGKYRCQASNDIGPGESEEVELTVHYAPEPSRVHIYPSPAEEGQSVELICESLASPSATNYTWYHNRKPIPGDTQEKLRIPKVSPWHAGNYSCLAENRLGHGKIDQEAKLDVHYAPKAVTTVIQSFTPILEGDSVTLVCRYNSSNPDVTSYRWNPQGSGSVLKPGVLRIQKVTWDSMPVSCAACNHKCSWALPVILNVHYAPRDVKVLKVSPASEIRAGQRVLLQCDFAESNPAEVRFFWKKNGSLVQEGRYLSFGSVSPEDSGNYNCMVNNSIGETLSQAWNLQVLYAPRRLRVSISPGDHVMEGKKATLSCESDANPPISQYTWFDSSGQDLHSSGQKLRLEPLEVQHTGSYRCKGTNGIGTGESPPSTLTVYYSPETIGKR
Outline: (§1)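 Steady-state fits gave the affinities. Before capture on a streptavidin surface, biotinylated CD22 had native sialic acids stripped (SialoExo, 4 hours, 37° C.). Running buffer: 10 mM HEPES pH 7.5, 150 mM NaCl, 0.05% Tween-20, 1% DMSO, with DMSO solvent correction.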

[2] = target: T2, human Siglec-2/CD22 protein (Homo sapiens, UniProt P20273); assay: SPR binding affinity to human CD22; settings: steady-state analysis
T2 construct: purchased Acro Biosystems SI2-H82E3
T2 sequence (P20273 20-847): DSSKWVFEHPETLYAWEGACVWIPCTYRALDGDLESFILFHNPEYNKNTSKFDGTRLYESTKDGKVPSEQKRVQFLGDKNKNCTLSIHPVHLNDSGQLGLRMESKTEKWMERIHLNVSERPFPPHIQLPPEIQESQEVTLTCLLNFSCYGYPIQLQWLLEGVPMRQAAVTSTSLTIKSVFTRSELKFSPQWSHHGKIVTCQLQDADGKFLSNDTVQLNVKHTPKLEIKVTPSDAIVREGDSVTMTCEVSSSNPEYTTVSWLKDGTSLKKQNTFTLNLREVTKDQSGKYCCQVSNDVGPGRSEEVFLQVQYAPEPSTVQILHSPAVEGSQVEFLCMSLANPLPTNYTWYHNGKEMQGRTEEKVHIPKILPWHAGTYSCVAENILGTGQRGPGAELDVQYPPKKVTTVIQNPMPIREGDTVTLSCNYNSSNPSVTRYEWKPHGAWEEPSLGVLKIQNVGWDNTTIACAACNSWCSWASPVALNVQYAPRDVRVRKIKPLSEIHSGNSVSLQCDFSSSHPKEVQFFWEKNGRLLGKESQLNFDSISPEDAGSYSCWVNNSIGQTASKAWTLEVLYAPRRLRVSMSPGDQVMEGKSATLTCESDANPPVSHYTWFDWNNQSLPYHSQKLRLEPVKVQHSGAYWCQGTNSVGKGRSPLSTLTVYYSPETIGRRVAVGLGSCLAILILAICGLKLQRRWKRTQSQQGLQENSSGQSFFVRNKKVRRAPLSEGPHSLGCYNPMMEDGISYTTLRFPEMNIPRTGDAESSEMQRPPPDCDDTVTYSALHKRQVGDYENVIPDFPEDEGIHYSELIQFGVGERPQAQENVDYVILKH
Outline: as §1

cynomolgus Siglec-2/CD22 = cynomolgus Siglec-2/CD22 (Macaca fascicularis, UniProt A0A2K5WCZ6); assay: biochemical; type: binding; settings: SPR, steady-state analysis; read-out: Affinity cyno CD22
Outline: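 Compound binding measured by steady-state SPR analysis, 120 s dissociation, in HEPES-NaCl-Tween buffer pH 7.5 containing 1% DMSO, DMSO solvent-corrected. Surface: cyno CD22, sialic acids first stripped by SialoExo for 4 h at 37° C., then amine-coupled onto CM5.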

Chain of cynomolgus Siglec-2/CD22 (A0A2K5WCZ6 entry or part of it): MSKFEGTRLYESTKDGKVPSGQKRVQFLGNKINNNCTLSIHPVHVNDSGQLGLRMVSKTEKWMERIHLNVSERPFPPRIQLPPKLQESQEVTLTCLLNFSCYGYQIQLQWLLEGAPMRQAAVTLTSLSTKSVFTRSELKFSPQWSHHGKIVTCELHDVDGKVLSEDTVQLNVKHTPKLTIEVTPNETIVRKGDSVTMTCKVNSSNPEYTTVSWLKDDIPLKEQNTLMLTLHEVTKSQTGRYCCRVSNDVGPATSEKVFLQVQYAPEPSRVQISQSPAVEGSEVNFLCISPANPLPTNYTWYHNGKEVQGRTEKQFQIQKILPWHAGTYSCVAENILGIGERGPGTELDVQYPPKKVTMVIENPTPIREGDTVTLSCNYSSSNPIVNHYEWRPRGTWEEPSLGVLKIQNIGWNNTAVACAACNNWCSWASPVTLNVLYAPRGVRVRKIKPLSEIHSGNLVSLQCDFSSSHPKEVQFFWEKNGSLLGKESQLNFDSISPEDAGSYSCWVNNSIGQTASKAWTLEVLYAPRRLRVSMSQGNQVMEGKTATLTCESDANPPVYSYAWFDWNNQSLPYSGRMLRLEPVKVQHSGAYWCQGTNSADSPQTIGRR

Kd [1] [nM]	Kd [2] [nM]	Kd (cynomolgus Siglec-2/CD22) [nM]	Structure (SMILES)
1000 to 10000	< 1000	< 1000	C#CCCCCCCO[C@]1(C(=O)O)C[C@H](O)[C@@H](NC(=O)CO)[C@H]([C@H](O)[C@H](O)CNC(=O)C(F)(F)c2ccccc2)O1 [Compound 42, (2R,4S,5R,6R)-6-((1R,2R)-3-(2,2-difluoro-2-phenylacetamido)-1,2-dihydroxypropyl)-4-hydroxy-5-(2-hydroxyacetamido)-2-(oct-7-yn-1-yloxy) tetrahydro-2H-pyran-2-carboxylic acid]
< 1000	< 1000	1000 to 10000	C#CCCOc1ccc(CO[C@]2(C(=O)O)C[C@H](O)[C@@H](NC(=O)CO)[C@H]([C@H](O)[C@H](O)CNC(=O)Cc3ccc(-c4ccc(NC(C)=O)cc4)cc3)O2)cc1 [Compound 50, (2R,4S,5R,6R)-6-((1R,2R)-3-(2-(4′-acetamido-[1,1′-biphenyl]-4-yl)acetamido)-1,2-dihydroxypropyl)-2-((4-(but-3-yn-1-yloxy)benzyl)oxy)-4-hydroxy-5-(2-hydroxyacetamido)tetrahydro-2H-pyran-2-carboxylic acid]
1000 to 10000	1000 to 10000	1000 to 10000	C#CCOCCOCCNc1c(NCCCCCCO[C@]2(C(=O)O)C[C@H](O)[C@@H](NC(=O)CO)[C@H]([C@H](O)[C@H](O)CNC(=O)c3cccc(F)c3)O2)c(=O)c1=O [Compound 234, (2R,4S,5R,6R)-2-((6-((3,4-dioxo-2-((2-(2-(prop-2-yn-1-yloxy)ethoxy)ethyl)amino)cyclobut-1-en-1-yl)amino)hexyl)oxy)-6-((1R,2R)-3-(3-fluorobenzamido)-1,2-dihydroxypropyl)-4-hydroxy-5-(2-hydroxyacetamido)tetrahydro-2H-pyran-2-carboxylic acid]
1000 to 10000	< 1000	< 1000	CCCCCC[C@H](O)[C@]1(C(=O)O)C[C@H](O)[C@@H](NC(=O)CO)[C@H]([C@H](O)[C@H](O)CNC(=O)Cc2ccc(Cl)cc2)O1 [Compound 203, (2S,4S,5R,6R)-6-((1R,2R)-3-(2-(4-chlorophenyl)acetamido)-1,2-dihydroxypropyl)-4-hydroxy-5-(2-hydroxyacetamido)-2-((S)-1-hydroxyheptyl)tetrahydro-2H-pyran-2-carboxylic acid]
< 1000	< 1000	< 1000	C#CCOCCCCCCO[C@]1(C(=O)O)C[C@H](O)[C@@H](NC(=O)CO)[C@H]([C@H](O)[C@H](O)CNC(=O)Cc2ccc(-c3ccc(O)cc3)cc2)O1 [Compound 63, (2R,4S,5R,6R)-6-((1R,2R)-1,2-dihydroxy-3-(2-(4′-hydroxy-[1,1′-biphenyl]-4-yl)acetamido)propyl)-4-hydroxy-5-(2-hydroxyacetamido)-2-((6-(prop-2-yn-1-yloxy)hexyl)oxy)tetrahydro-2H-pyran-2-carboxylic acid]
< 1000	< 1000	< 1000	C#CCNc1c(NCCCCCCO[C@]2(C(=O)O)C[C@H](O)[C@@H](NC(=O)CO)[C@H]([C@H](O)[C@H](O)CNC(=O)Cc3ccc(Cl)cc3)O2)c(=O)c1=O [Compound 112, (2R,4S,5R,6R)-6-((1R,2R)-3-(2-(4-chlorophenyl)acetamido)-1,2-dihydroxypropyl)-2-((6-((3,4-dioxo-2-(prop-2-yn-1-ylamino)cyclobut-1-en-1-yl)amino)hexyl)oxy)-4-hydroxy-5-(2-hydroxyacetamido)tetrahydro-2H-pyran-2-carboxylic acid]
> 10000	1000 to 10000	1000 to 10000	C#CCOCCOCCO[C@@]1(C(=O)O)O[C@@H]([C@H](O)[C@H](O)CNC(=O)Cc2ccc(-c3ccccc3)cc2)[C@H](NC(=O)CO)[C@@H](NC(=O)CC)[C@@H]1O [Compound 178, (2R,3S,4R,5R,6R)-6-((1R,2R)-3-(2-([1,1′-biphenyl]-4-yl)acetamido)-1,2-dihydroxypropyl)-3-hydroxy-5-(2-hydroxyacetamido)-2-(2-(2-(prop-2-yn-1-yloxy)ethoxy)ethoxy)-4-propionamidotetrahydro-2H-pyran-2-carboxylic acid]
1000 to 10000	1000 to 10000	1000 to 10000	C#CCCOc1ccc(CO[C@]2(C(=O)O)C[C@H](O)[C@@H](NC(=O)CO)[C@H]([C@H](O)[C@H](O)CNC(=O)Cc3ccc4nc[nH]c4c3)O2)cc1 [Compound 8, (2R,4S,5R,6R)-6-((1R,2R)-3-(2-(1H-benzo[d]imidazol-6-yl)acetamido)-1,2-dihydroxypropyl)-2-((4-(but-3-yn-1-yloxy)benzyl)oxy)-4-hydroxy-5-(2-hydroxyacetamido)tetrahydro-2H-pyran-2-carboxylic acid]
1000 to 10000	< 1000	< 1000	C#CCOCCCCCCO[C@]1(C(=O)O)C[C@H](O)[C@@H](NC(=O)C(F)(F)F)[C@H]([C@H](O)[C@H](O)CNC(=O)Cc2ccc(Cl)cc2)O1 [Compound 90, (2R,4S,5R,6R)-6-((1R,2R)-3-(2-(4-chlorophenyl)acetamido)-1,2-dihydroxypropyl)-4-hydroxy-2-((6-(prop-2-yn-1-yloxy)hexyl)oxy)-5-(2,2,2-trifluoroacetamido)tetrahydro-2H-pyran-2-carboxylic acid]
< 1000	< 1000	< 1000	O=C(O)CCCCCCCCCCCCCCCO[C@]1(C(=O)O)C[C@H](O)[C@@H](NC(=O)CO)[C@H]([C@H](O)[C@H](O)CNC(=O)Cc2ccc(Cl)cc2)O1 [Compound 99, (2R,4S,5R,6R)-2-((15-carboxypentadecyl)oxy)-6-((1R,2R)-3-(2-(4-chlorophenyl)acetamido)-1,2-dihydroxypropyl)-4-hydroxy-5-(2-hydroxyacetamido)tetrahydro-2H-pyran-2-carboxylic acid]
1000 to 10000	1000 to 10000	1000 to 10000	C#CCCOc1ccc(CO[C@]2(C(=O)O)C[C@H](O)[C@@H](NC(=O)CO)[C@H]([C@H](O)[C@H](O)CNC(=O)Cc3ccc(NC(C)=O)cc3)O2)cc1 [Compound 168, (2R,4S,5R,6R)-6-((1R,2R)-3-(2-(4-acetamidophenyl)acetamido)-1,2-dihydroxypropyl)-2-((4-(but-3-yn-1-yloxy)benzyl)oxy)-4-hydroxy-5-(2-hydroxyacetamido)tetrahydro-2H-pyran-2-carboxylic acid]
1000 to 10000	1000 to 10000	1000 to 10000	C#CCOCCOCCO[C@]1(C(=O)O)C[C@H](O)[C@@H](NC(=O)CO)[C@H]([C@H](O)[C@H](O)CNC(=O)Cc2ccc(OC)cc2)O1 [Compound 174, (2R,4S,5R,6R)-6-((1R,2R)-1,2-dihydroxy-3-(2-(4-methoxyphenyl)acetamido)propyl)-4-hydroxy-5-(2-hydroxyacetamido)-2-(2-(2-(prop-2-yn-1-yloxy)ethoxy)ethoxy)tetrahydro-2H-pyran-2-carboxylic acid]

Structure (SMILES)	Kd [1] [nM]	Kd [2] [nM]	Kd (cynomolgus Siglec-2/CD22) [nM]
C#CCC(NC(=O)CCCO[C@]1(C(=O)O)C[C@H](O)[C@@H](NC(=O)CO)[C@H]([C@H](O)[C@H](O)CNC(=O)Cc2ccc(Cl)cc2)O1)C(=O)O (stereo partly drawn) [Compound 102, (2R,4S,5R,6R)-2-(4-((1-carboxybut-3-yn-1-yl)amino)-4-oxobutoxy)-6-((1R,2R)-3-(2-(4-chlorophenyl)acetamido)-1,2-dihydroxypropyl)-4-hydroxy-5-(2-hydroxyacetamido)tetrahydro-2H-pyran-2-carboxylic acid]	1000 to 10000	1000 to 10000	1000 to 10000
